Reference: article PMC12686049 (2025)

Assays:
[1] = system: B DNA (DNA, single strand) GGCGCTATTCTCTGGTGCTGCT; assay: thioflavin T fluorescence; settings: 100 mM KCl; 10 mM sodium cacodylate, pH 7.4; 4 µM DNA, 1 µM dye; background without DNA 1154
[2] = system: ftmC (DNA, G4) GGGTCTGGAGCGCGGGGTTCGGGGATCGGG; assay: thioflavin T fluorescence; settings: 100 mM KCl; 10 mM sodium cacodylate, pH 7.4; 4 µM DNA, 1 µM dye; background without DNA 1154
[3] = system: hmg1 (DNA, G4) GGGCGGCAGGGACAGGGGCAACTTCGGG; assay: thioflavin T fluorescence; settings: 100 mM KCl; 10 mM sodium cacodylate, pH 7.4; 4 µM DNA, 1 µM dye; background without DNA 1154
[4] = system: gstA (DNA, G4) GGGCTGGGTGGCGGCCGCTGGTTGGGCGGG; assay: thioflavin T fluorescence; settings: 100 mM KCl; 10 mM sodium cacodylate, pH 7.4; 4 µM DNA, 1 µM dye; background without DNA 1154
[5] = system: dppV (DNA, G4) GGGACGGCGTTGGGGGGGGGAAGGG; assay: thioflavin T fluorescence; settings: 100 mM KCl; 10 mM sodium cacodylate, pH 7.4; 4 µM DNA, 1 µM dye; background without DNA 1154
[6] = system: atrR (DNA, G4) GGGGGAGGGTGCGGGATGCTCTTCGGG; assay: thioflavin T fluorescence; settings: 100 mM KCl; 10 mM sodium cacodylate, pH 7.4; 4 µM DNA, 1 µM dye; background without DNA 1154
[7] = system: skn7 (DNA, single strand) GGGGGGGGGGTGGG; assay: thioflavin T fluorescence; settings: 100 mM KCl; 10 mM sodium cacodylate, pH 7.4; 4 µM DNA, 1 µM dye; background without DNA 1154
[8] = system: abcB (DNA, G4) GGGGGTGGGCGTTGGGGCGGG; assay: thioflavin T fluorescence; settings: 100 mM KCl; 10 mM sodium cacodylate, pH 7.4; 4 µM DNA, 1 µM dye; background without DNA 1154
[9] = system: lysF (DNA, G4) GGGACGCGGGGGGCGGCATCGGGAGCGGG; assay: thioflavin T fluorescence; settings: 100 mM KCl; 10 mM sodium cacodylate, pH 7.4; 4 µM DNA, 1 µM dye; background without DNA 1154
[10] = system: hscA (DNA, G4) GGGGCTGAATTGGGGGGGAAAACGAGACGGG; assay: thioflavin T fluorescence; settings: 100 mM KCl; 10 mM sodium cacodylate, pH 7.4; 4 µM DNA, 1 µM dye; background without DNA 1154
[11] = system: zafA (DNA, G4) GGGCAGGGCAGAGCAGGGCAGGGG; assay: thioflavin T fluorescence; settings: 100 mM KCl; 10 mM sodium cacodylate, pH 7.4; 4 µM DNA, 1 µM dye; background without DNA 1154
[12] = system: zrfC (DNA, G4) GGGTTGGGCTGGTCGACATGTGGGCCCGGG; assay: thioflavin T fluorescence; settings: 100 mM KCl; 10 mM sodium cacodylate, pH 7.4; 4 µM DNA, 1 µM dye; background without DNA 1154
[13] = system: fks1 (DNA, G4) GGAAGGGGCTCGGGCATGGG; assay: thioflavin T fluorescence; settings: 100 mM KCl; 10 mM sodium cacodylate, pH 7.4; 4 µM DNA, 1 µM dye; background without DNA 1154
[14] = system: bck1 (DNA, G4) GGGCCTGGAGGGGGGCCCGGGG; assay: thioflavin T fluorescence; settings: 100 mM KCl; 10 mM sodium cacodylate, pH 7.4; 4 µM DNA, 1 µM dye; background without DNA 1154
[15] = system: cyp51B (DNA, G4) GGGGTAGGGGGGCCCAGGG; assay: thioflavin T fluorescence; settings: 100 mM KCl; 10 mM sodium cacodylate, pH 7.4; 4 µM DNA, 1 µM dye; background without DNA 1154
[16] = system: ste7 (DNA, G4) GGGAGGGACACAAAGAGGGGATAAGGAGGG; assay: thioflavin T fluorescence; settings: 100 mM KCl; 10 mM sodium cacodylate, pH 7.4; 4 µM DNA, 1 µM dye; background without DNA 1154
[17] = system: pkaC1 (DNA, G4) GGGTTGTGGTGGGTGGAGGGATGGGG; assay: thioflavin T fluorescence; settings: 100 mM KCl; 10 mM sodium cacodylate, pH 7.4; 4 µM DNA, 1 µM dye; background without DNA 1154
[18] = system: atrF (DNA, G4) GGGTATTTGTTTGGGGGGATGGG; assay: thioflavin T fluorescence; settings: 100 mM KCl; 10 mM sodium cacodylate, pH 7.4; 4 µM DNA, 1 µM dye; background without DNA 1154
[19] = system: pes1 (DNA, G4) GGGAGCAAGGGGAAATCGCTGAGGGTGGG; assay: thioflavin T fluorescence; settings: 100 mM KCl; 10 mM sodium cacodylate, pH 7.4; 4 µM DNA, 1 µM dye; background without DNA 1154
[20] = system: aspf28 (DNA, G4) GGGTTGCGAGGGAAGGAGGGGCGGG; assay: thioflavin T fluorescence; settings: 100 mM KCl; 10 mM sodium cacodylate, pH 7.4; 4 µM DNA, 1 µM dye; background without DNA 1154
[21] = system: erg1 (DNA, G4) GGGCGACGGGGAAGAGGTAGGGAGGG; assay: thioflavin T fluorescence; settings: 100 mM KCl; 10 mM sodium cacodylate, pH 7.4; 4 µM DNA, 1 µM dye; background without DNA 1154
[22] = system: chsG (DNA, G4) GGAGAGCGGGAGGTGGTGAGGG; assay: thioflavin T fluorescence; settings: 100 mM KCl; 10 mM sodium cacodylate, pH 7.4; 4 µM DNA, 1 µM dye; background without DNA 1154
[23] = system: aspf2 (DNA, G4) GGGGACGGGGGAGGTAGGGAGGG; assay: thioflavin T fluorescence; settings: 100 mM KCl; 10 mM sodium cacodylate, pH 7.4; 4 µM DNA, 1 µM dye; background without DNA 1154
[24] = system: cyp51A (DNA, G4) GGGTGGGGGTGATAAACGGGGCATCAGGG; assay: thioflavin T fluorescence; settings: 100 mM KCl; 10 mM sodium cacodylate, pH 7.4; 4 µM DNA, 1 µM dye; background without DNA 1154
[25] = system: yap1 (DNA, G4) GGGATGGGCTTCCCAAGTCGGGGAGAGGG; assay: thioflavin T fluorescence; settings: 100 mM KCl; 10 mM sodium cacodylate, pH 7.4; 4 µM DNA, 1 µM dye; background without DNA 1154
[26] = system: gliN (DNA, G4) GGGGGGCGCTTGGCTGGGAAGGCGGTTGGG; assay: thioflavin T fluorescence; settings: 100 mM KCl; 10 mM sodium cacodylate, pH 7.4; 4 µM DNA, 1 µM dye; background without DNA 1154
[27] = system: laeA (DNA, G4) GGGATGTGGGACAGGGATTTGGG; assay: thioflavin T fluorescence; settings: 100 mM KCl; 10 mM sodium cacodylate, pH 7.4; 4 µM DNA, 1 µM dye; background without DNA 1154
[28] = system: ags1 (DNA, G4) GGGCTTGAGGGGAACTGGGAGGAGCGGG; assay: thioflavin T fluorescence; settings: 100 mM KCl; 10 mM sodium cacodylate, pH 7.4; 4 µM DNA, 1 µM dye; background without DNA 1154
[29] = system: erg5 (DNA, G4) GGGATTAGGGTATGCCTCAGGGTCATGGG; assay: thioflavin T fluorescence; settings: 100 mM KCl; 10 mM sodium cacodylate, pH 7.4; 4 µM DNA, 1 µM dye; background without DNA 1154
[30] = system: mp1 (DNA, single strand) GGCTCCGGCTCCGGCTCCGG; assay: thioflavin T fluorescence; settings: 100 mM KCl; 10 mM sodium cacodylate, pH 7.4; 4 µM DNA, 1 µM dye; background without DNA 1154
[31] = system: rodA (DNA, G4) GGGGTAGGGAACAGGGTCCCGGG; assay: thioflavin T fluorescence; settings: 100 mM KCl; 10 mM sodium cacodylate, pH 7.4; 4 µM DNA, 1 µM dye; background without DNA 1154
[32] = system: Telomere (DNA, G4) TTAGGGTTAGGGTTAGGGTTAGGGTT; assay: thioflavin T fluorescence; settings: 100 mM KCl; 10 mM sodium cacodylate, pH 7.4; 4 µM DNA, 1 µM dye; background without DNA 1154
[33] = system: arp2 (DNA, G4) GGGGAGGGGACCCTTGCATGGAGGGGGGG; assay: thioflavin T fluorescence; settings: 100 mM KCl; 10 mM sodium cacodylate, pH 7.4; 4 µM DNA, 1 µM dye; background without DNA 1154
[34] = system: ftmE (DNA, G4) GGGAGTGGGGATGGCGACGGGGAGCAGGG; assay: thioflavin T fluorescence; settings: 100 mM KCl; 10 mM sodium cacodylate, pH 7.4; 4 µM DNA, 1 µM dye; background without DNA 1154
[35] = system: A1-G (DNA, G4) CCGGGAGGAATCATGTAAGGGGTCCCGGGAACGGGCAAGGGGCTTTTCACC; assay: CD titration at 295 nm, Hill fit; settings: 100 mM KCl; 10 mM sodium cacodylate, pH 7.0, 25 °C; 10 µM DNA; apparent, half-maximal ellipticity change; Hill coefficient 2.1 ± 0.9
[36] = system: A2-G (DNA, G4) GGGTGGGGGTGATAAACGGGGCATCAGGGACACATTGCTGGGTCGGGTCGT; assay: CD titration at 295 nm, Hill fit; settings: 100 mM KCl; 10 mM sodium cacodylate, pH 7.0, 25 °C; 10 µM DNA; apparent, half-maximal ellipticity change; Hill coefficient 2.8 ± 1.5

SMILES: Cc1ccc2c(c1)sc(-c1ccc(N(C)C)cc1)[n+]2C
- Fluorescence [1]: 8808 ± 6 a.u.
- Fluorescence [2]: 66,613 ± 9 a.u.
- Fluorescence [3]: 148,303 ± 33 a.u.
- Fluorescence [4]: 56,709 ± 4 a.u.
- Fluorescence [5]: 47,933 ± 12 a.u.
- Fluorescence [6]: 37,691 ± 7 a.u.
- Fluorescence [7]: 7173 ± 6 a.u.
- Fluorescence [8]: 28,763 ± 5 a.u.
- Fluorescence [9]: 86,442 ± 9 a.u.
- Fluorescence [10]: 56,161 ± 21 a.u.
- Fluorescence [11]: 26,023 ± 6 a.u.
- Fluorescence [12]: 81,452 ± 19 a.u.
- Fluorescence [13]: 72,302 ± 9 a.u.
- Fluorescence [14]: 73,174 ± 7 a.u.
- Fluorescence [15]: 34,409 ± 10 a.u.
- Fluorescence [16]: 126,709 ± 54 a.u.
- Fluorescence [17]: 62,347 ± 4 a.u.
- Fluorescence [18]: 64,599 ± 9 a.u.
- Fluorescence [19]: 129,161 ± 40 a.u.
- Fluorescence [20]: 71,548 ± 13 a.u.
- Fluorescence [21]: 71,126 ± 17 a.u.
- Fluorescence [22]: 38,112 ± 15 a.u.
- Fluorescence [23]: 87,449 ± 40 a.u.
- Fluorescence [24]: 62,145 ± 13 a.u.
- Fluorescence [25]: 69,030 ± 18 a.u.
- Fluorescence [26]: 134,267 ± 16 a.u.
- Fluorescence [27]: 50,899 ± 9 a.u.
- Fluorescence [28]: 67,230 ± 34 a.u.
- Fluorescence [29]: 149,474 ± 14 a.u.
- Fluorescence [30]: 9852 ± 22 a.u.
- Fluorescence [31]: 50,100 ± 17 a.u.
- Fluorescence [32]: 100,859 ± 19 a.u.
- Fluorescence [33]: 82,140 ± 54 a.u.
- Fluorescence [34]: 105,384 ± 10 a.u.

SMILES: C[n+]1cc(NC(=O)c2ccc3ccc4ccc(C(=O)Nc5cc6ccccc6[n+](C)c5)nc4c3n2)cc2ccccc21
- K [35]: 32.7 ± 3.3 µM
- K [36]: 32.5 ± 1.8 µM
